Source: patent US4731363A, “Thromboxane synthase inhibitors as insulin lowering agents and antiobesity agents” (priority 1986, dated 1988)

Legend:
[1] = target: T1, thromboxane synthase (Guinea Pig Lung Microsomes) (Cavia porcellus, UniProt H0UT36); experiment: biochemical; conditions: enzyme source G = Guinea Pig Lung Microsomes; read-out: IC50
T1 construct: The lungs were removed, freed of trachea and the majority of blood removed by rinsing the lungs with buffer; from tissue; host or cells: lungs of male guinea pigs (microsomes, 110,000 g pellet)
T1 sequence (H0UT36 entry or part of it): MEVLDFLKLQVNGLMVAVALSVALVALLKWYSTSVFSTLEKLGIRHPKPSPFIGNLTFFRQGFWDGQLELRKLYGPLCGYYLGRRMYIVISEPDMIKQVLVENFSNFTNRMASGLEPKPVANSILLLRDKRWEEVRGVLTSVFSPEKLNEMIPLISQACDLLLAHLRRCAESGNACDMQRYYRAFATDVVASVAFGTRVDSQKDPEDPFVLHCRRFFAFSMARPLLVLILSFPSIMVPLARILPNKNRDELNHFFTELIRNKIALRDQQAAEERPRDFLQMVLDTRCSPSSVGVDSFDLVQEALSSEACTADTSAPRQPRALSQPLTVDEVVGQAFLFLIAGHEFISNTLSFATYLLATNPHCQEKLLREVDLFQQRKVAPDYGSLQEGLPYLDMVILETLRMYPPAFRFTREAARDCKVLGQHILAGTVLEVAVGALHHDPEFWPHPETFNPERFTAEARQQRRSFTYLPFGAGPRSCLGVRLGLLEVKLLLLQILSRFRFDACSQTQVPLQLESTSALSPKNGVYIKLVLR
Protocol: In said assay procedure, microsomes from guinea pig lung or human platelets are added to an endoperoxide intermediate in prostaglandin biosynthesis and the inhibitor in phosphate buffer solution followed by incubation, extraction and determination of the extent of thromboxane synthase inhibition by TLC with radiochromatographic profile analysis. […]
Isolation of Guinea Pig Lung Microsomes
Four male guinea pigs (.congruent.500 g each) were sacrificed by spinal dislocation. The lungs were removed, freed of trachea and the majority of blood removed by rinsing the lungs with buffer (0.1M phosphate pH 7.5) via the pulmonary artery. The lung tissue (18.3 g total wet wt.), was then minced, suspended in three volumes of buffer and homogenized using, initially, a Brinkmann polytron homogenizer and, finally, a glass-teflon tissue grinder. The homogenate was centrifuged at 12,000 g for 1 hr. and the resultant supernatant recentrifuged at 110,000 g for 1 hr. The 110,000 g pellet was taken up in 10 ml of buffer, divided into 5×2 ml aliquots and stored at -70° until use.
Low specific activity PGH2 (3.3 μCi/μmole) was obtained from Dr. W. E. M. Lands of the University of Michigan. PGH2 of higher specific activity (16.0 μCi/μmole) was purchased from Ran Biochemicals, Tel-Aviv, Israel.
The inhibitors tested were prepared as solutions (1-10 mg/ml) in 95% ethanol.
Assay for Thromboxane Synthase
To a 12×75 mm tube containing [1-^14 C] PGH2 (2 μg, 0.01 μCi or 0.05 μCi) and inhibitor (1 mM final assay concentration, in 10 μl of ethanol) in 225 μl of phosphate buffer (0.1M, pH 7.5), was added to an aliquot of guinea pig lung microsomes (25 μl, containing 400 μg protein) or an aliquot of human platelet microsomes (25 μl, containing .congruent.[…] protein). The solution was incubated in a 22° water bath for 2 min.; ether (1 ml) and citric acid (25 μMoles) were added, and the tube plunged into an acetone-dry ice bath. The ether extract was transferred to a 1.0 ml Reacti-vial, and the volume reduced under nitrogen to .congruent.50 μl.
The extract was applied to an I.T.L.C., type SG, glass fiber sheet (Gelman Instrument Co., Ann Arbor, Mich.) and developed in isooctane; methyl ethyl ketone: acetic acid (100:19:1 or 100:9:1) (19). The sheets were air dried and scanned using a Berthold LB 2760 Radiochromatographic Scanner. In certain cases, based on the radiochromatographic profile obtained, the sheets were cut, the appropriate regions placed in scintillation vials, 10 ml of LSC cocktail (Yorktown Research, S. Hackensack, NJ) added, and the relative cpm determined.

[2] = system: isolated perfused rat pancreas; experiment: Insulin secretion by isolated perfused rat pancreas; design: key: insulin AUC ratio: 1st glucose pulse / 2nd pulse with compound; conditions: 100 μM; 16.7 mM glucose; control 1.0 ± 0.04 (n = 5)
Protocol: Determination of Insulin-Secretory Activity in the Isolated Perfused Rat Pancreas
Pancreata were obtained from young adult female Charles River rats weighing from 200-300 g. The animals were anaesthesized with sodium pentobarbitol (45 mg/kg), injected intraperitoneally, and the pancreas with its intact vasculature was removed and connected to an extracorporeal perfusion apparatus.
The basic perfusion solution contained: 133 mM NaCl, 4.4 mM KCl, 2.5 mM MgSO4, 2.4 mM Ca gluconate, 1.5 mM KH2 PO4, 29.4 mM NaHCO3, 4% dextran and 0.2% bovine serum albumin and glucose as discussed below. The perfusion flow rate was kept constant at 4 ml/min. After a 15-20 min equilibration period, the experimental protocol was begun. The pancreatic effluent was collected in either one or four-minute fractions.
The perfusion was run in the following sequence:
30 min 16.7 mM glucose-internal control
30 min 16.7 mM glucose and test compound
5 min 20 mM arginine-to check pancreas viability
Test compounds were dissolved in 90% ethanol to a concentration of 25 mM and then diluted in the perfusion buffer to the desired concentration. The perfusion effluent was collected in one or four min fractions-the samples were checked immediately, aliquoted for submission to radioimmunoassay and stored at -20° C. until the time of assay. The radioimmunoassay of insulin was carried out by a back-titration method using a pure rat insulin standard.
To assess the inhibitory activity of the test compounds, an inhibition index was calculated. The inhibition index is derived by comparing the insulin secretion response from treated versus nontreated pancreas preparations. For each preparation, a ratio of insulin secretion was calculated from the area under the insulin secretion curve of the first pulse of 16.7 mM glucose divided by the area under the curve of the second pulse of 16.7 mM glucose containing compound.

obese Zucker rats = experiment: Antiobesity activity in vivo in obese Zucker rats; design: species or system rat; conditions: 16 to 18 days; for Body Weight Gain: treated minus control
Protocol: Determination of Antiobesity Activity
Thromboxane synthase inhibitors were evaluated for antiobesity activity in vivo. Body weight, food intake and circulating insulin levels were monitored during periods of drug treatment. Analysis of carcass composition was performed at study termination.
Animals, Diets and Drug Administration
Lean and obese male and female Zucker rats bred at Hoffmann-La Roche Inc. (Nutley, NJ) were kept in wire-bottomed individual cages in light (12 hr dark and light cycles beginning at 6 p.m. and 6 a.m., respectively) and temperature-controlled (22°) rooms. All rats were fed chow diet (Ralston Purina Co., St. Louis, MO) ad libitum until one to three weeks before the start of drug treatment, at which time they were trained to consume a high glucose low fat (1% corn oil) diet which is herein referred to as G-70:1% CO. Following the one to three-week training period on G-70:1% CO, the average daily food intake was calculated, and the rats were weighed and divided into groups of four to seven rats each.
The control animals continued to eat the G-70:1% CO diet ad libitum, and the experimental groups were given G-70:1% CO diet containing drug (also fed ad libitum). The amount of drug added to the diet of each experimental group was based on calculations of food consumed per kg body weight using data collected at the end of the training period. […] The period of drug treatment ranged from 16 to 18 days as noted in the legends to the tables and graph. Food intake and body weight were recorded either daily or twice a week throughout the duration of the study. The amount of drug administered was calculated from the food intake per kg body weight for each experimental group. Body weight data are reported as the difference between the body weight gains of control and drug-treated animals. Food intake and insulin data are reported as percent of control.
^a Average duration of treatment was 16 to 18 days.
^b Body weight gain was computed by taking the difference between the
weight gain of treated and control rats.

CC(=O)c1ccc(-n2ccnc2)cc1 [1-[4-(1H--imidazol-1-yl)phenyl]ethanone, 1-[4-(1H-imidazol-1-yl)phenyl]ethanone]
IC50 [1]: 1 to 10 µM | Insulin Secretion Inhibition Index [2]: 2 | Food Consumption (obese Zucker rats; 60 mg/kg in diet, P ≤ 0.05): 82 ± 3 % of control | Insulin (obese Zucker rats; 60 mg/kg in diet, not marked significant): 66 ± 16 % of control | Body Weight Gain (obese Zucker rats; 60 mg/kg in diet, P ≤ 0.05): -25 g | Food Consumption (obese Zucker rats; 87 mg/kg in diet, P ≤ 0.05): 84 ± 1 % of control | Insulin (obese Zucker rats; 87 mg/kg in diet, P ≤ 0.05): 32 ± 5 % of control | Body Weight Gain (obese Zucker rats; 87 mg/kg in diet, P ≤ 0.05): -32 g | Food Consumption (obese Zucker rats; 113 mg/kg in diet, P ≤ 0.05): 74 ± 1 % of control | Insulin (obese Zucker rats; 113 mg/kg in diet, P ≤ 0.05): 24 ± 1 % of control | Body Weight Gain (obese Zucker rats; 113 mg/kg in diet, P ≤ 0.05): -74 g
